{"source": "patent US12275731B2", "about": "“Azaindole inhibitors of wild-type and mutant forms of LRRK2” (DANA-FARBER CANCER INSTITUTE, INC., priority 2018, dated 2025)", "key": {"LRRK2(G2019S)": {"target": "LRRK2(G2019S) (Homo sapiens, UniProt Q5S007, G2019S)", "sequence (Q5S007 970-2527 G2019S limits assumed)": "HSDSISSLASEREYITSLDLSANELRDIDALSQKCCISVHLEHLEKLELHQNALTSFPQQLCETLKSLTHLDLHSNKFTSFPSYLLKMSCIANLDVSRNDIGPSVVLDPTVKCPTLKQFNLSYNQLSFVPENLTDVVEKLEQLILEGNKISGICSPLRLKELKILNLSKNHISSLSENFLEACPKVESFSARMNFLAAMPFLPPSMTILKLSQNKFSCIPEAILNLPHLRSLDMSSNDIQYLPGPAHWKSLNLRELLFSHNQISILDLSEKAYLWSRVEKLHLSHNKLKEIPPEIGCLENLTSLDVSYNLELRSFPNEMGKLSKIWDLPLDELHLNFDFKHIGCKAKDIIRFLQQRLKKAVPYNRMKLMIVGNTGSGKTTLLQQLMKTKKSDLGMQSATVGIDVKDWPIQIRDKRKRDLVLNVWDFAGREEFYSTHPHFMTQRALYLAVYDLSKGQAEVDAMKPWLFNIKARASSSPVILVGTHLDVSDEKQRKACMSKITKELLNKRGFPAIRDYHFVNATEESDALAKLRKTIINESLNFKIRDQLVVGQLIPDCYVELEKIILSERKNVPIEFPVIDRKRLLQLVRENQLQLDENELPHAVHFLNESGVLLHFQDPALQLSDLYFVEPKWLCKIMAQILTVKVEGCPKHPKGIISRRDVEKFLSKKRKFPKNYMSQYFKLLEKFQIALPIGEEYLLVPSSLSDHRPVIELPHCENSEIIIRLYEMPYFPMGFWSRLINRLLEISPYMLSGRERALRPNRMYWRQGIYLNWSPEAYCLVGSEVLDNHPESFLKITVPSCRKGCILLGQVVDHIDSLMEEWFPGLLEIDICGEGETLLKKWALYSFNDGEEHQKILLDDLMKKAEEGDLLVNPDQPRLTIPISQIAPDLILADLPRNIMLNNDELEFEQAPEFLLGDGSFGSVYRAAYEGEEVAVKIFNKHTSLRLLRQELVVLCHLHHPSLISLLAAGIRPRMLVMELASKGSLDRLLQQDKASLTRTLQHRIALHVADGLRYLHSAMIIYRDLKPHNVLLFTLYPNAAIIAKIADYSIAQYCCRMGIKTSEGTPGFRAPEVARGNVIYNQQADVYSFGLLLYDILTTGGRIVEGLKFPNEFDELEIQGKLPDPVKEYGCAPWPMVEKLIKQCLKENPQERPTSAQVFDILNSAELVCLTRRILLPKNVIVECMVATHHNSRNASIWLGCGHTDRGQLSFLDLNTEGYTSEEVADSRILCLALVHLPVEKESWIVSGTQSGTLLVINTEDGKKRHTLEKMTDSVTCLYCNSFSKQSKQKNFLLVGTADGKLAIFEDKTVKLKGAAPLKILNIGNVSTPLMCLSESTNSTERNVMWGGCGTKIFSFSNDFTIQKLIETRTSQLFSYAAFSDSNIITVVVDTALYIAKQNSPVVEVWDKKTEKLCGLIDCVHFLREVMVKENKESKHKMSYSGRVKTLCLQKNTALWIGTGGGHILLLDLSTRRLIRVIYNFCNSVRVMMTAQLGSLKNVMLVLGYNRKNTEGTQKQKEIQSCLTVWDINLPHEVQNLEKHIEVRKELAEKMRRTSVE", "assay": "LRRK2 G2019S kinase inhibition assay (ADP-Glo)", "type": "biochemical", "design": "purchased SignalChem L10-12GG", "conditions": "Table 2, class symbols; read-out: Enzyme activity against LRRK2 G2019S (IC50)", "procedure": "(§1) IC50 experiments were performed for inventive compounds. An exemplary kit to perform this assay includes the Adapta™ Screening Protocol and Assay Conditions by Invitrogen™ (Fisher Scientific™, Catalog No. PV5099).\n(§2) All LRRK2 kinase inhibition assays were conducted by using Promega ADP-Glo™ Kinase assay systems (Catalog number; V4475). Inhibitors were tested with 12 concentrations over a 5-fold serial dilution series (50 μM, 10 μM, 2 μM, 400 nM, 80 nM, 16 nM, 3.2 nM, […]) and PF06447475 as positive control. For the LRRK2 wild type (WT) enzyme assay, each inhibitor was mixed with 0.2 μg/μL of substrate (LRRKtide, SignalChem, Richmond, BC, Canada), […] (Invitrogen™, Carlsbad, CA), 24 ng of LRRK2 WT enzyme (Thermo Fisher Scientific, PR8604B) in 384-well plate. For LRRK G2019S, each compound was mixed with 0.2 μg/μL of substrate, […], 16 ng of LRRK2 G2019S enzyme (SignalChem, L10-12GG). All samples were diluted with kinase reaction buffer (40 mmol/L TrisHCl, 10 mmol/L MgCl2, and 0.1 μg/μL BSA (bovine serum albumin)). After 2 hours at 25° C., ADP-Glo™ (Promega, Madison, WI) reagent was added and the samples were incubated at rt for 40 min. Finally, Kinase Detection Reagent was added and the resulting mixtures were allowed to react at rt for 10 min. Luminescence signals were detected using Synergy™ Neo2 microplate reader (Bio-Tek). Compound inhibition curve was fitted using Graphpad Prism 8.0 software."}, "LRRK2 WT enzyme": {"target": "T1, LRRK2 WT enzyme (Homo sapiens, UniProt Q5S007)", "T1 construct": "purchased Thermo Fisher Scientific PR8604B", "T1 sequence (Q5S007 970-2527 limits assumed)": "as the sequence (Q5S007 970-2527 G2019S limits assumed) above, with S1050G counted along it", "assay": "LRRK2 wild type kinase inhibition assay (ADP-Glo)", "type": "biochemical", "conditions": "Table 2, class symbols; read-out: Enzyme activity against LRRK2 WT (IC50)", "procedure": "as §1, §2"}, "FLT3(D835V)": {"target": "T2, FLT3(D835V) (Homo sapiens, UniProt P36888, D835V)", "T2 sequence (P36888 27-993 D835V)": "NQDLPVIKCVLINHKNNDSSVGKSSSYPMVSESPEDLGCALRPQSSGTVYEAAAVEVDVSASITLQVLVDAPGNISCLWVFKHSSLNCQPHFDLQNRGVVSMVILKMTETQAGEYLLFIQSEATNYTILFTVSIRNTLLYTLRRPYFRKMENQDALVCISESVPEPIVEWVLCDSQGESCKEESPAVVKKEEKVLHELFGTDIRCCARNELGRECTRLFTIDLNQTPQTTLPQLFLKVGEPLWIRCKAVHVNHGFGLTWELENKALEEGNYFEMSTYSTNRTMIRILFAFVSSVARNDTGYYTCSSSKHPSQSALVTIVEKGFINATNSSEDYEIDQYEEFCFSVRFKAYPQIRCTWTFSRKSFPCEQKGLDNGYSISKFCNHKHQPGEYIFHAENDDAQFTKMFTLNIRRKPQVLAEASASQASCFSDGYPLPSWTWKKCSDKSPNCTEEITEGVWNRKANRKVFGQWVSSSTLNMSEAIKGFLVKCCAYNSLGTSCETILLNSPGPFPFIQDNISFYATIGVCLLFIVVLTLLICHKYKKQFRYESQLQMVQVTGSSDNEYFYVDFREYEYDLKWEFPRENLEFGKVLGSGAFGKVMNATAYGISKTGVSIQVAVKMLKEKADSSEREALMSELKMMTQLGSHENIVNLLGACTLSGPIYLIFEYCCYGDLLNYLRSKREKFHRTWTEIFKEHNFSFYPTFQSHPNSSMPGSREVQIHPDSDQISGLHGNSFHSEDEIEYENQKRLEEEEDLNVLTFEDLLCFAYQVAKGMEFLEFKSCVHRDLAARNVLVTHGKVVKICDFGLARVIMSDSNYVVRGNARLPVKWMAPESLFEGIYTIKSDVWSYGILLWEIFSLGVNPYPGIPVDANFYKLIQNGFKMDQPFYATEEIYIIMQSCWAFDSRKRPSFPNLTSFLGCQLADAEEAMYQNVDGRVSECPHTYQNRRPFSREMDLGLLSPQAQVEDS", "assay": "KinomeScan profiling", "type": "binding", "conditions": "read-out: % control", "in_short": "(§3)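 1 μM cpd in DMSO; 468-kinase panel; readout RLU. % ctrl = (cpd − pos ctrl)/(neg ctrl − pos ctrl) ×100. Pos ctrl = 0%, DMSO = 100%. Hit cut-off <35%.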"}, "FLT3(ITD, D835V)": {"system": "FLT3(ITD, D835V)", "assay": "KinomeScan profiling", "type": "binding", "conditions": "1 μM", "in_short": "as §3"}, "FLT3(ITD)": {"system": "FLT3(ITD)", "assay": "KinomeScan profiling", "type": "binding", "conditions": "1 μM", "in_short": "as §3"}, "FLT3(ITD, F691L)": {"system": "FLT3(ITD, F691L)", "assay": "KinomeScan profiling", "type": "binding", "conditions": "1 μM", "in_short": "as §3"}}, "data": [{"smiles": "CNc1c(-c2cnn([C@H]3CCN(C(C)=O)C[C@@H]3F)c2)cnc2[nH]cc(Cl)c12", "note": "[Compound 77, 1-((3S,4S)-4-(4-(3-chloro-4-(methylamino)-1H-pyrrolo[2,3-b]pyridin-5-yl)-1H-pyrazol-1-yl)-3-fluoropiperidin-1-yl)ethan-1-one]", "values": [{"measurement": "IC50", "setting": "LRRK2(G2019S)", "result": "10 to 100", "unit": "nM"}, {"measurement": "IC50", "setting": "LRRK2 WT enzyme", "result": "10 to 100", "unit": "nM"}, {"measurement": "remaining binding at 1 µM", "setting": "FLT3(D835V)", "result": 0.5, "unit": "%"}]}, {"smiles": "O=C(c1ccc(-c2cnc3[nH]cc(Cl)c3c2NC2CCCC2)cc1)N1CCC(N2CCOCC2)CC1", "note": "[Compound 101, (4-(3-chloro-4-(cyclopentylamino)-1H-pyrrolo[2,3-b]pyridin-5-yl)phenyl)(4-morpholinopiperidin-1-yl)methanone]", "values": [{"measurement": "% control", "setting": "FLT3(ITD, D835V)", "result": 55, "unit": "%"}, {"measurement": "% control", "setting": "FLT3(ITD)", "result": 41, "unit": "%"}, {"measurement": "remaining binding at 1 µM", "setting": "FLT3(D835V)", "result": 6.4, "unit": "%"}, {"measurement": "% control", "setting": "FLT3(ITD, F691L)", "result": 49, "unit": "%"}]}, {"smiles": "CNc1c(-c2ccc(C(=O)N3CCC(N4CCOCC4)CC3)cc2)cnc2[nH]cc(Cl)c12", "note": "[Compound 96, (4-(3-chloro-4-(methylamino)-1H-pyrrolo[2,3-b]pyridin-5-yl)phenyl)(4-morpholinopiperidin-1-yl)methanone]", "values": [{"measurement": "IC50", "setting": "LRRK2(G2019S)", "result": "< 10", "unit": "nM"}, {"measurement": "IC50", "setting": "LRRK2 WT enzyme", "result": "10 to 100", "unit": "nM"}, {"measurement": "% control", "setting": "FLT3(ITD, D835V)", "result": 3.6, "unit": "%"}, {"measurement": "% control", "setting": "FLT3(ITD)", "result": 8.1, "unit": "%"}, {"measurement": "remaining binding at 1 µM", "setting": "FLT3(D835V)", "result": 2.9, "unit": "%"}, {"measurement": "% control", "setting": "FLT3(ITD, F691L)", "result": 0, "unit": "%"}]}]}
